Assay results from patent publication US8940774B2, “Tris-Quaternary Ammonium Salts and Methods for Modulating Neuronal Nicotinic Acetylcholine Receptors” (University of Kentucky Research Foundation, priority 2005, dated 2015).

What was measured:
[1] = target: T1, Rat Striatal Nicotinic Receptors (Rattus norvegicus, UniProt P09483+P12390); test: Inhibition of [3H]Nicotine (NIC) binding assay, rat striatal membranes; details: % inhibition at 100 nM concentration of analog, 3 nM [3H]NIC
T1 construct: from tissue; host or cells: rat striatal membranes
T1 sequence (P09483 31-630): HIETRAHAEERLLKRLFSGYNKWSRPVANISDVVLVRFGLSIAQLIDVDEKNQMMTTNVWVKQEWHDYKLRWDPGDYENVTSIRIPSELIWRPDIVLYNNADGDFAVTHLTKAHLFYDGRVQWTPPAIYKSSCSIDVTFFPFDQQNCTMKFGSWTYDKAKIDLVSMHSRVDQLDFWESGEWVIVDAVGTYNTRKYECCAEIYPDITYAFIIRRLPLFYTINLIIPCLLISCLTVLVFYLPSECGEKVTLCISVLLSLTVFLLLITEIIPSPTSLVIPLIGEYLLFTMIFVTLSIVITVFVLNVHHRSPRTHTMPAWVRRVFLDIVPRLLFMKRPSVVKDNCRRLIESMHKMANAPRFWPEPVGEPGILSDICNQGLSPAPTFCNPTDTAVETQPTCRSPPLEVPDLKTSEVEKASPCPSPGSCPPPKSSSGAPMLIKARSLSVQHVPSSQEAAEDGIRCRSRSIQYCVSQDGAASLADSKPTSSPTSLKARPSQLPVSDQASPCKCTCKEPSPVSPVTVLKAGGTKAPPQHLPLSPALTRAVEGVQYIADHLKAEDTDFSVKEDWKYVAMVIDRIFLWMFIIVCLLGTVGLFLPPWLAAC
T1 sequence (P12390 25-500): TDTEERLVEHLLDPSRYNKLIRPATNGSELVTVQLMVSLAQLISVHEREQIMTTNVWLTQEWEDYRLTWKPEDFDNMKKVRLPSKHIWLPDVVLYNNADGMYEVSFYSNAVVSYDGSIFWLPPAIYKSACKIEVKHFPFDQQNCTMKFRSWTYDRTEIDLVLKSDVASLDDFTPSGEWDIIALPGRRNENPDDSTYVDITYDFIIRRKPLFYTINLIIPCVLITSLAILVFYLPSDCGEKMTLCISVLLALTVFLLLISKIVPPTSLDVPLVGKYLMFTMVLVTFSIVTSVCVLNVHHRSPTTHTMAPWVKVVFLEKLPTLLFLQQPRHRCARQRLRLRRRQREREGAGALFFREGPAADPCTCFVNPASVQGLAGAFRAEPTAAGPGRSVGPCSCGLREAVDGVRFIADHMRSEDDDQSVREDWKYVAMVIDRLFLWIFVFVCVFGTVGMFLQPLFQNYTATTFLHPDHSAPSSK
Experimental: Striata from two rats were dissected, pooled, and homogenized with a Tekmar polytron in 10 vol of ice-cold modified Krebs-HEPES buffer (20 mM HEPES, 118 mM NaCl, 4.8 mM, KCl, 2.5 mM CaCl2, 1.2 mM MgSO4, adjusted to pH 7.5). The homogenates were incubated at 37° C. for 5 minutes and centrifuged at 15,000 g for 20 minutes. The pellet was resuspended in 10 volumes of ice-cold MilliQ water, incubated for 5 minutes at 37° C., and centrifuged at 15,000 g for 20 minutes. The second pellet was then resuspended in 10 volumes of fresh ice-cold 10% Krebs-HEPES buffer, incubated at 37° C., and centrifuged at 15,000 g for 20 minutes. The latter sequence of resuspension, incubation and centrifugation was repeated. The pellet was frozen under fresh 10% Krebs-HEPES buffer and stored at −40° C. until assay. Upon assay, the pellet was resuspended in Krebs-HEPES buffer, incubated at 37° C. for 5 minutes, and centrifuged at 15,000 g for 20 minutes. The final pellet was resuspended in 3.6 mL ice-cold MilliQ water which provided for approximately 200 μg protein per 100 μL aliquot. Competition assays were performed in duplicate in a final volume of 200 μL Krebs-HEPES buffer containing […] Tris buffer (pH 7.5 at 4° C.). Reactions were initiated by addition of 100 μL of membrane suspension to 3 nM [^3H]NIC (50 μL) and one of at least nine concentrations of analog (50 μL). After a 90 minute incubation at 4° C., reactions were terminated by dilution of the samples with 3 mL of ice-cold Krebs-HEPES buffer followed immediately by filtration through Whatman GF/B glass fiber filters (presoaked in 0.5% polyethyleneimine) using a Brandel Cell Harvester. Filters were rinsed three times with 3 mL of ice-cold Krebs-HEPES buffer, transferred to scintillation vials, and 5 mL scintillation cocktail (Research Products international Corp., Mt. Prospect, Ill.) added. Nonspecific binding determined in triplicate was defined as binding in the presence of 10 μM NIC. Binding parameters were determined using the weighted, least squares non-linear regression. The tris-quaternary ammonium salts were evaluated for their ability to displace [^3H]NIC binding from rat striatal membranes.
(§1) Data are % inhibition at 100 nM concentration of analog for at least 1-3 independent experiments. Specific binding in the [^3H]NIC binding assay is calculated at the difference between the total binding of [^3H]NIC and nonspecific binding in the presence of 10 μM cold nicotine. Specific binding for the [^3H]MLA binding assay is calculated as the difference between the total binding of 2.5 nM [^3H]MLA to the receptors alone and its nonspecific binding in the presence of 1 μM cold MLA. Analog-induced inhibition of nicotine-evoked [^3H]DA release is calculated as a percent of that in the absence of analog.

[2] = test system: NIC-evoked [3H]DA release from rat striatal slices; test: Nicotine-evoked [3H]dopamine release assay, superfused rat striatal slices; type: cell-based; details: 100 nM analog superfused 60 minutes prior to NIC (10 μM), percent of that in the absence of analog
Experimental: Rat striatal slices (500 μm thickness, 6-8 mg wet weight) were incubated for 30 minutes in Krebs buffer (118 mM NaCl, 4.7 mM KCl, 1.2 mM MgCl2, 1.0 mM NaH2PO4, 1.3 mM CaCl2, 11.1 mM glucose, 25 mM NaHCO3, 0.11 mM L-ascorbic acid and 0.004 mM disodium EDTA; pH 7.4, and saturated with 95% O2/5% CO2) in a metabolic shaker at 34° C. Slices were rinsed with 15 mL of fresh buffer and incubated for an additional 30 minutes in fresh buffer containing 0.1 μM [^3H]dopamine (DA; 6 slices/3 mL). Subsequently, slices were rinsed with 15 mL of fresh buffer and transferred to a glass superfusion chamber. Slices were superfused (1.0 mL/min) for 60 minutes with Krebs buffer containing nomifensine (10 μM) and pargyline (10 μM) and maintained at 34° C., pH 7.4 with continual aeration (95% O2/5% CO2). Two five minute samples (5 mL each) were collected to determine basal outflow of [^3H]DA. Analogs were added to the superfusion buffer after the collection of the second sample and remained in the buffer until 12 consecutive five minute samples were collected. Subsequently, S-(−)-nicotine (10 μM) was added to the buffer and an additional 12 consecutive five minute samples were collected. At the end of the experiment, each slice was solubilized and the [^3H] content of the tissue determined.
Radioactivity in the superfusate and tissue samples were determined by liquid scintillation spectroscopy. Fractional release for tritium collected in each sample was divided by the total tritium present at the time of sample collection and was expressed as a percentage of total tritium. Basal [^3H] outflow was calculated from the average of the tritium collected in the two five-minute samples just before addition of the analog. The sum of the increase in collected tritium resulting from either exposure to the test compound or exposure to S-(−)-nicotine in the absence cod presence of the test compound equaled total [^3H] overflow. [^3H] Overflow was calculated by subtracting the [^3H] outflow during an equivalent period of prestimulation from the values in samples collected during and after drug exposure. Inasmuch as the radiolabelled compounds were not separated and identified, the tritium in the superfusate is referred to as either [^3H] outflow or [^3H] overflow, rather than [^3H]DA. [^3H] Overflow primarily represents [^3H]DA in the presence of nomifesine and pargyline in the superfusion buffer. […]
Analogs were also evaluated for their ability to inhibit NIC evoked [^3H]DA release. In these experiments, the striatal slices were superfused for 60 minutes with 100 nM concentration of the analogs prior to NIC (10 μM) exposure. Antagonist activity was evaluated by comparing the NIC-evoked [^3H] overflow in the absence and presence of the analogs. The relative order of potency of the analogs for inhibition of NIC-evoked [^3H]DA release from rat striatal slices is illustrated in Table 1.
as §1

Row | SMILES | inhibition at 0.1 µM [1] [%] | inhibition at 0.1 µM [2] [%]
1 | CCCCc1ccc[n+](CCCC#Cc2cc(C#CCCC[n+]3cccc(CCCC)c3)cc(C#CCCC[n+]3cccc(CCCC)c3)c2)c1 [GZ551A, 1,3,5-tris-[5-(3-butyl-pyridinium)-pent-1-ynyl]-benzene tribromide] | 6.8 ± 2 | 52
2 | CN1CCC[C@H]1c1ccc[n+](CCCC#Cc2cc(C#CCCC[n+]3cccc([C@@H]4CCCN4C)c3)cc(C#CCCC[n+]3cccc([C@@H]4CCCN4C)c3)c2)c1 [GZ551B, 1,3,5-tris-{5-[3-(1-methyl-2-S-pyrrolidinyl)pyridinium]-pent-1-ynyl}-benzene tribromide] | 44 ± 3.1 | 63
3 | CN1CCC[C@H]1c1ccc[n+](CCCCCc2cc(CCCCC[n+]3cccc([C@@H]4CCCN4C)c3)cc(CCCCC[n+]3cccc([C@@H]4CCCN4C)c3)c2)c1 [GZ558C, 1,3,5-tris-{5-[3-(1-methyl-2-S-pyrrolidinyl)pyridinium]-pentyl}-benzene tribromide] | 81 ± 2.3 | 35
